Experimental data as given in patent publication US6306860A, “2,5-pyridinedicarboxylic acid derivatives” (Dong Wha Pharm. Inc. Co., Ltd., priority 1998, dated 2001).
Where a name gives a salt, the structure may show the parent alone. Read-outs that look alike come from different tables or passages of the source.

Experiments:
HBV = details: results of some studies; cited from earlier work
[1] = molecular target: T1, HIV reverse transcriptase (Human immunodeficiency virus type 1 group M subtype B, UniProt P04585); assay: In vitro inhibition test against HIV reverse transcriptase; assay type: biochemical; details: read-out: Inhibitory activity of HIV-RT (%)
T1 construct: purchased Boehringer Mannheim
Method in brief: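 Non-radioactive colorimetric kit assay: 40 ng HIV-RT with poly(A)/oligo(dT)15 template/primer plus DIG-dUTP, biotin-dUTP and TTP, incubated with compound 1 h at 37 °C. Product captured on streptavidin, detected with anti-DIG-POD and ABTS; A405 read, with activity compared to a no-compound control.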

HBV polymerase = molecular target: T2, HBV polymerase (Hepatitis B virus genotype D subtype ayw, UniProt P03156); assay: Inhibitory activities against HBV polymerase (reverse transcriptase activity) in vitro; assay type: biochemical; details: read-out: Inhibitory activity of HBV-RT (%); for inhibition at 0.01 µg/mL: 0.01 μg/ml; for inhibition at 0.1 µg/mL: 0.1 μg/ml; for inhibition at 1 µg/mL: 1 μg/ml
T2 construct: made in house; host or cells: E. coli
T2 sequence (P03156 whole entry): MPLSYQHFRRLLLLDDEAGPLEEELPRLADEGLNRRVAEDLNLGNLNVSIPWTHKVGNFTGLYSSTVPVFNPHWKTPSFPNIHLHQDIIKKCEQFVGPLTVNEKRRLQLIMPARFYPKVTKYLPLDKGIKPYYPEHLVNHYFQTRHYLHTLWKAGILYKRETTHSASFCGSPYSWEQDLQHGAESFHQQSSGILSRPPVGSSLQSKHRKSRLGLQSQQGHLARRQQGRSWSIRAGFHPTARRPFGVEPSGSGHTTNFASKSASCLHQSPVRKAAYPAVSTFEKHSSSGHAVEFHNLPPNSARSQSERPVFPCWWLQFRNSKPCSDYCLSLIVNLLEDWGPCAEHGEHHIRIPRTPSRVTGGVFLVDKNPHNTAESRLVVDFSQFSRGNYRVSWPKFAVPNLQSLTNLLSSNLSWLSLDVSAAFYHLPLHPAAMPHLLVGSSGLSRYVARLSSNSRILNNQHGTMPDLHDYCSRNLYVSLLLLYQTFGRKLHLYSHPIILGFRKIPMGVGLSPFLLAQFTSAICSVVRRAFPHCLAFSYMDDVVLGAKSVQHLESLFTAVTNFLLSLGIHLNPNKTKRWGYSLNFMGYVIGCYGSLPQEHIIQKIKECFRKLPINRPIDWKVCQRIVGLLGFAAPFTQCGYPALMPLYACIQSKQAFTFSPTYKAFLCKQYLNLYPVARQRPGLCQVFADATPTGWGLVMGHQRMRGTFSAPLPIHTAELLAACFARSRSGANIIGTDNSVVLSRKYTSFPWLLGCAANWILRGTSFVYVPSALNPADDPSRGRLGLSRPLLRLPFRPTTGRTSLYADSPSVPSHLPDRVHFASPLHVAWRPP
Method in brief: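 Recombinant HBV polymerase expressed in E. coli was incubated with reaction mixture and test compound for 18~24 hours at 14° C.~30° C. Reverse transcriptase product, labelled with biotin- and DIG-modified nucleotide, detected ELISA-style with peroxidase anti-DIG antibody; inhibition judged relative to controls without compound.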

Compound | suppressing the proliferation of HBV (HBV) | inhibition at 0.1 µg/mL ([1]; 0.1 μg/ml) | inhibition at 1 µg/mL ([1]; 1 μg/ml) | inhibition at 0.01 µg/mL (HBV polymerase) | inhibition at 0.1 µg/mL (HBV polymerase) | inhibition at 1 µg/mL (HBV polymerase) | inhibition at 0.1 µg/mL [1] | inhibition at 1 µg/mL [1]
Nc1ccn([C@@H]2CS[C@H](CO)O2)c(=O)n1 [Lamivudine] | effective in suppressing the proliferation of HBV |  |  |  |  |  |  | 
CC(=O)OCC(CCn1cnc2cnc(N)nc21)COC(C)=O [Famvir] | effective in suppressing the proliferation of HBV |  |  |  |  |  |  | 
CC(C)Nc1cccnc1N1CCN(C(=O)c2ccc(C(=O)NCCOCCO)cn2)CC1 [Exam. 48, 5-[N-[2-(2-hydroxyethoxy)ethyl]carbamoyl]-2-[1-[3-(isopropylamino)-2-pyridyl]piperazin-4-yl-carbonyl]pyridine] |  | 41% | 52% | 52% | 66% | 79% |  | 
COC(CNC(=O)c1ccc(C(=O)N2CCN(CCO)CC2)nc1)OC [Exam. 101, N-(2,2-dimethoxyethyl)-6-[1-(2-hydroxyethyl)piperazin-4-yl-carbonyl]nicotinamide] |  |  |  | 55% | 63% | 85% | 41% | 56%
COCCN(CCOC)C(=O)c1ccc(C(=O)N2CCN(CCO)CC2)nc1 [Exam. 100, N,N-bis(2-methoxyethyl)-6-[1-(2-hydroxyethyl)piperazin-4-yl-carbonyl]nicotinamide.HCl] |  | 40% | 64% | 20% | 49% | 77% |  | 
CC(C)Nc1cccnc1N1CCN(C(=O)c2ccc(C(=O)NCC3CCCO3)cn2)CC1 (centres unmarked) [Exam. 53, 2-[1-[3-(isopropylamino)-2-pyridyl]piperazin-4-yl-carbonyl]-5-[N-(tetrahydrofuran-2-yl-methyl)carbamoyl]pyridine] |  | 59% | 78% | 52% | 60% | 74% |  | 
CC(C)Nc1cccnc1N1CCN(C(=O)c2ccc(C(=O)NCc3cccnc3)cn2)CC1 [Exam. 76, 6-[1-[3-(isopropylamino)-2-pyridyl]piperazin-4-yl-carbonyl]-N-(3-pyridylmethyl)nicotinamide] |  | 57% | 82% | 30% | 53% | 62% |  | 
COc1ccc(NC(=O)c2ccc(C(=O)N3CCN(c4ncccc4NC(C)C)CC3)nc2)cn1 [Exam. 71, 6-[1-[3-(isopropylamino)-2-pyridyl]piperazin-4-yl-carbonyl]-N-(6-methoxy-3-pyridyl)nicotinamide] |  | 48% | 74% | 59% | 70% | 83% |  | 
CCNc1cccnc1N1CCN(C(=O)c2ccc(C(=O)NCCOC)cn2)CC1 [Exam. 40, 2-[1-[3-(ethylamino)-2-pyridyl]piperazin-4-yl-carbonyl]-5-[N-(2-methoxyethyl)carbamoyl]-pyridine] |  | 52% | 70% | 36% | 57% | 75% |  | 
CC(C)Nc1cccnc1N1CCN(C(=O)c2ccc(C(=O)NCCCN3CCCC3=O)cn2)CC1 [Exam. 58, 2-[1-[3-(isopropylamino)-2-pyridyl]piperazin-4-yl-carbonyl]-5-[N-[3-(2-pyrrolidinon-1-yl)propyl]carbamoyl]pyridine.HCl] |  | 45% | 63% | 63% | 72% | 84% |  | 
CC(C)CNc1cccnc1N1CCN(C(=O)c2ccc(C(=O)NC(C)(C)CO)cn2)CC1 [Exam. 23, 5-[N-(1,1-dimethyl-2-hydroxyethyl)carbamoyl]-2-[1-[3-(isobutylamino)-2-pyridyl]piperazin-4-yl-carbonyl]pyridine] |  | 46% | 62% | 63% | 71% | 90% |  | 
CC(C)NC(=O)c1ccc(C(=O)N2CCN(c3ncccc3NC(C)C)CC2)nc1 [Exam. 24, 2-[1-[3-(isopropylamino)-2-pyridyl]piperazin-4-yl-carbonyl]-5-(N-isopropylcarbamoyl)pyridine] |  | 30% | 66% | 23% | 51% | 65% |  | 
CC(C)Nc1cccnc1N1CCN(C(=O)c2ccc(C(=O)NCCc3cccs3)cn2)CC1 [Exam. 81, 6-[1-[3-(isopropylamino)-2-pyridyl]piperazin-4-yl-carbonyl]-N-[2-(2-thienyl)ethyl]nicotinamide] |  | 54% | 75% | 44% | 60% | 80% |  | 
Cc1csc(NC(=O)c2ccc(C(=O)N3CCN(c4ncccc4NC(C)C)CC3)nc2)n1 [Exam. 68, 6-[1-[3-(isopropylamino)-2-pyridyl)piperazin-4-yl-carbonyl]-N-(4-methyl-1,3-thiazol-2-yl)nicotinamide] |  | 53% | 70% | 30% | 69% | 81% |  | 
CC(C)Nc1cccnc1N1CCN(C(=O)c2ccc(C(=O)NCc3ccccn3)cn2)CC1 [Exam. 73, 6-[1-[3-(isopropylamino)-2-pyridyl]piperazin-4-yl-carbonyl]-N-(2-pyridylmethyl)nicotinamide.HCl] |  | 57% | 73% | 53% | 62% | 77% |  | 
CC(C)CNc1cccnc1N1CCN(C(=O)c2ccc(C(=O)NC(C)C)cn2)CC1 [Exam. 26, 2-[1-[3-(isobutylamino)-2-pyridyl]piperazin-4-yl-carbonyl]-5-(N-isopropylcarbamoyl)pyridine] |  | 45% | 60% | 58% | 66% | 90% |  | 
CC(C)Nc1cccnc1N1CCN(C(=O)c2ccc(C(=O)NC3CCSC3=O)cn2)CC1 (centres unmarked) [Exam. 57, 2-[1-[3-(isopropylamino)-2-pyridyl]piperazin-4-yl-carbonyl]-5-[N-(tetrahydro-2-thiophenon-3-yl)carbamoyl]pyridine] |  | 61% | 70% | 23% | 53% | 72% |  | 
